Measurements: patent US12516051B1, “Small molecule degraders and fluorescent probes of PXR” (St. Jude Children's Research Hospital, Inc., priority 2024, dated 2026)
Read-outs that look alike come from different tables or passages of the source.

Tested on: SNU-C4 HiBiT-PXR KI cells
Assay: Cytotoxicity, CellTiter-Glo Luminescent Cell Viability Assay
Assay type: cell-based
Procedure: An Echo 655T Acoustic Liquid Handler was used to dispense 75 nL/well of DMSO or PROTAC dilution into white tissue culture-treated 384-well plates. For 24 h cytotoxicity, 25 μL assay media containing 1×10^4 cells was added to each well to match the conditions for the degradation assays. For 72 h cytotoxicity, 25 μL RPMI with 10% FBS containing 2.5×10^3 cells was added to each well to match normal growth conditions. […] After 24 h or 72 h, the CellTiter-Glo Luminescent Cell Viability Assay (Promega, cat. #G7572) and an EnVision microplate reader were used to assess cytotoxicity. DMSO wells with cells served as positive controls, and wells without cells served as negative controls. The percent cell viability for each well was calculated using equation 5,

[1] = read-out: 24 h CC50, Table 3, 24 h treatment
[2] = read-out: 72 h CC50, Table 3, 72 h treatment
[3] = read-out: 24 h CC50, Table 2, 24 h treatment
[4] = read-out: 72 h CC50, Table 2, 72 h treatment
[5] = read-out: 24 h CC50, Table 4, 24 h treatment
[6] = read-out: 72 h CC50, Table 4, 72 h treatment

Structure (SMILES)	CC50 [1] [µM]	CC50 [2] [µM]	also measured
COc1cc(OCC(=O)NCCOCCOCCOCCOCC(=O)N[C@H](C(=O)N2C[C@H](O)C[C@H]2C(=O)NCc2ccc(-c3scnc3C)cc2)C(C)(C)C)c(C)cc1-n1nnc(S(=O)(=O)c2ccc(C(C)(C)C)cc2)c1C [Compound 30, (2S,4R)-1-((S)-2-(TERT-BUTYL)-20-(4-(4-((4-(TERT-BUTYL)PHENYL)SULFONYL)-5-METHYL-1H-1,2,3-TRIAZOL-1-YL)-5-METHOXY-2-METHYLPHENOXY)-4,19-DIOXO-6,9,12,15-TETRAOXA-3,18-DIAZAICOSANOYL)-4-HYDROXY-N-(4-(4-METHYLTHIAZOL-5-YL)BENZYL)PYRROLIDINE-2-CARBOXAMIDE]	> 30	> 30	–
COc1cc(OCCCCCCCC(=O)N[C@H](C(=O)N2C[C@H](O)C[C@H]2C(=O)NCc2ccc(-c3scnc3C)cc2)C(C)(C)C)c(C)cc1-n1nnc(S(=O)(=O)c2ccc(C(C)(C)C)cc2)c1C [Compound 25, (2S,4R)-1-((S)-2-(8-(4-(4-((4-(TERT-BUTYL)PHENYL)SULFONYL)-5-METHYL-1H-1,2,3-TRIAZOL-1-YL)-5-METHOXY-2-METHYLPHENOXY)OCTANAMIDO)-3,3-DIMETHYLBUTANOYL)-4-HYDROXY-N-(4-(4-METHYLTHIAZOL-5-YL)BENZYL)PYRROLIDINE-2-CARBOXAMIDE]	> 30	> 30	–
CCC[C@H](CC)Oc1ccc(C(=O)NCCCCC(=O)N[C@H](C(=O)N2C[C@H](O)C[C@H]2C(=O)NCc2ccc(-c3scnc3C)cc2)C(C)(C)C)cc1NC(=O)c1nnn(-c2cc(OC)ccc2OC)c1C [Compound 17]	–	–	CC50 [3]: > 30 µM; CC50 [4]: > 30 µM
CCCCOc1ccc(C(C)(C)C)cc1NC(=O)c1nnn(-c2cc(C)c(OCCCCCCOCCOCC(=O)N[C@H](C(=O)N3C[C@H](O)C[C@H]3C(=O)NCc3ccc(-c4scnc4C)cc3)C(C)(C)C)cc2OC)c1C [Compound 35, N-(2-Butoxy-5-(tert-butyl)phenyl)-1-(4-((6-(2-(2-(((S)-1-((2S,4R)-4-hydroxy-2-((4-(4-methylthiazol-5-yl)benzyl)carbamoyl)pyrrolidin-1-yl)-3,3-dimethyl-1-oxobutan-2-yl)amino)-2-oxoethoxy)ethoxy)hexyl)oxy)-2-methoxy-5-methylphenyl)-5-methyl-1H-1,2,3-triazole-4-carboxamide]	–	–	CC50 [5]: > 30 µM; CC50 [6]: > 30 µM
COc1cc(OCCCC(=O)N[C@H](C(=O)N2C[C@H](O)C[C@H]2C(=O)NCc2ccc(-c3scnc3C)cc2)C(C)(C)C)c(C)cc1-n1nnc(S(=O)(=O)c2ccc(C(C)(C)C)cc2)c1C [Compound 23, (2S,4R)-1-((S)-2-(4-(4-(4-((4-(TERT-BUTYL)PHENYL)SULFONYL)-5-METHYL-1H-1,2,3-TRIAZOL-1-YL)-5-METHOXY-2-METHYLPHENOXY)BUTANAMIDO)-3,3-DIMETHYLBUTANOYL)-4-HYDROXY-N-(4-(4-METHYLTHIAZOL-5-YL)BENZYL)PYRROLIDINE-2-CARBOXAMIDE]	> 30	> 30	–
CCC[C@H](CC)Oc1ccc(C(=O)NCCCCCCCCC(=O)N[C@H](C(=O)N2C[C@H](O)C[C@H]2C(=O)NCc2ccc(-c3scnc3C)cc2)C(C)(C)C)cc1NC(=O)c1nnn(-c2cc(OC)ccc2OC)c1C [Compound 19]	–	–	CC50 [3]: > 30 µM; CC50 [4]: > 30 µM
COc1cc(OCC(=O)N[C@H](C(=O)N2C[C@H](O)C[C@H]2C(=O)NCc2ccc(-c3scnc3C)cc2)C(C)(C)C)c(C)cc1-n1nnc(S(=O)(=O)c2ccc(C(C)(C)C)cc2)c1C [Compound 22, (2S,4R)-1-((S)-2-(2-(4-(4-((4-(TERT-BUTYL)PHENYL)SULFONYL)-5-METHYL-1H-1,2,3-TRIAZOL-1-YL)-5-METHOXY-2-METHYLPHENOXY)ACETAMIDO)-3,3-DIMETHYLBUTANOYL)-4-HYDROXY-N-(4-(4-METHYLTHIAZOL-5 YL)BENZYL)PYRROLIDINE-2-CARBOXAMIDE]	> 30	> 30	–
COc1cc(OCCCCCCOCCOCCOCCOCCOCCOCC(=O)N[C@H](C(=O)N2C[C@H](O)C[C@H]2C(=O)NCc2ccc(-c3scnc3C)cc2)C(C)(C)C)c(C)cc1-n1nnc(S(=O)(=O)c2ccc(C(C)(C)C)cc2)c1C [Compound 34, (2S,4R)-1-((S)-2-(tert-Butyl)-27-(4-(4-((4-(tert-butyl)phenyl)sulfonyl)-5-methyl-1H-1,2,3-triazol-1-yl)-5-methoxy-2-methylphenoxy)-4-oxo-6,9,12,15,18,21-hexaoxa-3-azaheptacosanoyl)-4-hydroxy-N-(4-(4-methylthiazol-5-yl)benzyl)pyrrolidine-2-carboxamide]	> 30	> 30	–
CCC[C@H](CC)Oc1ccc(C(=O)OC)cc1NC(=O)c1nnn(-c2cc(OC)c(OCCCCCCOCCOCC(=O)N[C@H](C(=O)N3C[C@H](O)C[C@H]3C(=O)NCc3ccc(-c4scnc4C)cc3)C(C)(C)C)cc2OC)c1C [Compound 38, METHYL 4-(((S)-HEXAN-3-YL)OXY)-3-(1-(4-((6-(2-(2-(((S)-1-((2S,4R)-4-HYDROXY-2-((4-(4-METHYLTHIAZOL-5-YL)BENZYL)CARBAMOYL)PYRROLIDIN-1-YL)-3,3-DIMETHYL-1-OXOBUTAN-2-YL)AMINO)-2-OXOETHOXY)ETHOXY)HEXYL)OXY)-2,5-DIMETHOXYPHENYL)-5-METHYL-1H-1,2,3-TRIAZOLE-4-CARBOXAMIDO)BENZOATE]	–	–	CC50 [5]: > 30 µM; CC50 [6]: > 30 µM
COc1cc(OCCOCCC(=O)N[C@H](C(=O)N2C[C@H](O)C[C@H]2C(=O)NCc2ccc(-c3scnc3C)cc2)C(C)(C)C)c(C)cc1-n1nnc(S(=O)(=O)c2ccc(C(C)(C)C)cc2)c1C [Compound 24, (2S,4R)-1-((S)-2-(3-(2-(4-(4-((4-(TERT-BUTYL)PHENYL)SULFONYL)-5-METHYL-1H-1,2,3-TRIAZOL-1-YL)-5-METHOXY-2-METHYLPHENOXY)ETHOXY)PROPANAMIDO)-3,3-DIMETHYLBUTANOYL)-4-HYDROXY-N-(4-(4-METHYLTHIAZOL-5-YL)BENZYL)PYRROLIDINE-2-CARBOXAMIDE]	> 30	> 30	–
